Results taken from patent publication US20140179681A1, “METHODS AND COMPOSITIONS OF TARGETED DRUG DEVELOPMENT” (priority 2010, published 2014).
pIC50: −log10 of the molar value. Where two headings read alike, the source gives them in different places.

Experiments:
[1] = molecular target: T1, EGFR (Homo sapiens, UniProt P00533); assay: EGFR in-cell Western (ICW) screening protocol (EGFR inhibition assay); format: cell-based; set-up: ICW 1 / ICW 2 / ICW Avg: unit not given here; conditions: ICW assay; for ICW Avg: average of runs 1 and 2; for ICW 1: run 1; for ICW 2: run 2
T1 construct: host or cells: A431
How it was run: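 In-cell Western read-out: fixed A431 cells were co-stained for total EGFR and phospho-EGFR (Tyr1173; some runs Tyr1045). Before fixation, cells were serum-starved for 2 h, exposed to compound for 4 h, then given EGF for 10 min, usually at 10 ng/ml final (6.6 or 12.5 ng/ml in some runs).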

[2] = system: epithelial carcinoma A431 cell line; assay: MTT Cell Proliferation Assay, A431 cells; format: cell-based; conditions: for MTT Assay IC50(A431/MDBK): ratio in parentheses: ratio MDBK IC50 / A431 IC50 (selectivity); for MTT Follow-up: ratio in parentheses: ratio MDBK/A431
How it was run: (§1)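 Each concentration ran in quadruplicate across duplicate plates, with compounds serially diluted in DMSO and delivered at 0.5% DMSO in 0.5% FBS medium for 3 days.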

[3] = system: MDBK line; assay: MTT Cell Proliferation Assay, MDBK cells; format: cell-based, bovine; conditions: MDBK cells
How it was run: as §1

[4] = Homo sapiens, A-431, A431 cells, first value of cell, read-out: MTT Assay IC50(A431/MDBK): A431
[5] = Bos taurus, MDBK, second value of cell, read-out: MTT Assay IC50(A431/MDBK): MDBK
[6] = second value of cell, read-out: MTT Assay IC50(A431/MDBK): MDBK
[7] = Homo sapiens, A-431, follow-up MTT, A431 cells, first value, read-out: MTT Follow-up: A431
[8] = Bos taurus, MDBK, follow-up MTT, second value, read-out: MTT Follow-up: MDBK
[9] = A431 cells, first value of cell, read-out: MTT Assay IC50(A431/MDBK): A431

T1 sequence (P00533 25-1210): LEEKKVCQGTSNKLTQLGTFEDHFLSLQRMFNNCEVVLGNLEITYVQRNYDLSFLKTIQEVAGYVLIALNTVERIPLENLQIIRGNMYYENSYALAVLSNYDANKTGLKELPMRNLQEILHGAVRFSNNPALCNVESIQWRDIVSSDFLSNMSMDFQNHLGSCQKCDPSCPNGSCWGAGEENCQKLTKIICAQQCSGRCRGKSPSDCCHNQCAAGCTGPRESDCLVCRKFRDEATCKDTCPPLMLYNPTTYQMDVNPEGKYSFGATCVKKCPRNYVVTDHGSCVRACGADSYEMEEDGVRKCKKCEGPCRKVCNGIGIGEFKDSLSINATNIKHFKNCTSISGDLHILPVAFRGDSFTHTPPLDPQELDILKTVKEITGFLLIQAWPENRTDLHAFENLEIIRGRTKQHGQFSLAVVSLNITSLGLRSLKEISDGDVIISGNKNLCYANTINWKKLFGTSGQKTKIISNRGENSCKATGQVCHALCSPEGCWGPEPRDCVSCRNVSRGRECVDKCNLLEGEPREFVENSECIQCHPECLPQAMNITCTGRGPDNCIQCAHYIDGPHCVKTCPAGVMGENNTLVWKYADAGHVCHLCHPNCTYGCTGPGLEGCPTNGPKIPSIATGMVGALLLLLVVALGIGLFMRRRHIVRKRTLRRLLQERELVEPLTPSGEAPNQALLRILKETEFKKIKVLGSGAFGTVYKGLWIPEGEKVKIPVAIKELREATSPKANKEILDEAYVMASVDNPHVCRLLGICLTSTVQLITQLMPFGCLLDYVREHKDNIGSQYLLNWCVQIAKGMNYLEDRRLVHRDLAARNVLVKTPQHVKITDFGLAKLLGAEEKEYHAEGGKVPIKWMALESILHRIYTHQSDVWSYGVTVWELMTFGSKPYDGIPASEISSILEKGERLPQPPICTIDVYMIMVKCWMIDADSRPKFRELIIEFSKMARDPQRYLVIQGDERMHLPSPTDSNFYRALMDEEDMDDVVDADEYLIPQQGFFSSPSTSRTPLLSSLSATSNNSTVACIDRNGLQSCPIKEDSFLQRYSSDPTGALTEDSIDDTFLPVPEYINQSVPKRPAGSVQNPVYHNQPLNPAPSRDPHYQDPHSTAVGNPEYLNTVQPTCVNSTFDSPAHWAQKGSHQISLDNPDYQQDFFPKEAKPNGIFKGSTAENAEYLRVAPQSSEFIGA

SMILES	ICW Avg [1]	ICW 1 [1]	ICW 2 [1]	pIC50 [2, 4]	MTT Assay IC50(A431/MDBK): ratio in parentheses [2]	pIC50 [3, 5]	pIC50 [3, 6]	pIC50 [2, 7]	MTT Follow-up: ratio in parentheses [2]	pIC50 [3, 8]	MTT Assay IC50(A431/MDBK): A431 ([2]; A431 cells, first value of cell)	pIC50 [2, 9]
COC(=O)Cc1cc(=O)nc(Nc2nc(C)c3ccccc3n2)[nH]1 [compound 11609]	27.23	28.83	25.63	4.44	0.68	4.61	–	–	–	–	–	–
Cc1ccc2c(=O)nc(Nc3nc(C)cc(-c4ccccc4)n3)[nH]c2c1 [compound 11610]	31.67	22.50	40.84	5.30	–	4.76	–	–	–	–	–	–
COc1ccc2nc(Nc3nc(CSc4ccc(C)cc4)cc(=O)[nH]3)nc(C)c2c1 [compound 11617]	29.18	27.71	30.66	5.22	3.28	4.70	–	–	–	–	–	–
Cc1nc(Nc2nc(=O)cc(-c3ccccc3)[nH]2)nc2c(C)cccc12 [compound 11624]	26.08	22.54	29.61	4.85	1.59	4.65	–	–	–	–	–	–
Cc1cc(C)nc(Nc2nc(-c3ccccc3)c3ccc(Cl)cc3n2)n1 [compound 11636]	62.56	61.28	63.84	4.57	–	–	4.83	–	–	–	–	–
COc1cccc2c(C)nc(Nc3nc(-c4ccccc4)cc(=O)[nH]3)nc12 [compound 11741]	68.05	66.55	69.55	5.61	–	5.61	–	4.29	1.01	4.28	–	–
Cc1ccc2nc(Nc3nc(CSc4ncccn4)cc(=O)[nH]3)nc(C)c2c1 [compound 11751]	25.51	25.87	25.14	5.01	0.64	5.20	–	–	–	–	–	–
CCOc1cccc2c(C)nc(Nc3nc(CSc4ccc(C)cc4)cc(=O)[nH]3)nc12 [compound 11755]	37.09	40.96	33.21	–	–	–	–	4.85	0.23	5.49	non-convergent	–
COc1cccc2c(C)nc(Nc3nc(C(F)(F)F)cc(=O)[nH]3)nc12 [compound 11758]	47.78	53.63	41.93	4.27	–	3.24	–	–	–	–	–	–
Cc1ccc2c(C)nc(Nc3nc4c(c(-c5ccccc5)n3)CCCC4)nc2c1 [compound 11777]	25.87	37.92	13.81	5.18	1.62	4.97	–	–	–	–	–	–
Cc1nc(Nc2nc(CCC(C)C)cc(=O)[nH]2)nc2ccccc12 [compound 11792]	30.56	28.62	32.50	5.27	2.53	4.87	–	–	–	–	–	–
CCOC(=O)c1c(N)nc(Nc2nc(C)c3cc(C)ccc3n2)nc1-c1ccccc1 [compound 11812]	56.84	51.90	61.77	4.83	–	4.50	–	–	–	–	–	–
CCOC(=O)c1c(N)nc(Nc2nc(C)c3cc(C)c(C)cc3n2)nc1-c1ccccc1 [compound 11825]	54.02	52.17	55.87	5.39	–	4.75	–	–	–	–	–	–
Cc1cc(C)nc(Nc2nc(N)c3ccccc3n2)n1 [compound 11829]	65.68	62.56	68.79	4.71	–	4.79	–	–	–	–	–	–
CCc1ccc2nc(Nc3nc(C)c4c(n3)CCCC4)nc(C)c2c1 [compound 12213]	28.01	28.35	27.66	4.41	0.99	4.41	–	–	–	–	–	–
Cc1ccc2nc(Nc3nc4c(c(-c5ccccc5)n3)CCCC4)nc(C)c2c1 [compound 12227]	27.27	31.47	23.08	4.78	1.04	4.77	–	–	–	–	–	–
CCCc1c(-c2ccccc2)nc(Nc2nc(C)c3ccccc3n2)[nH]c1=O [compound 12609]	41.04	42.02	40.07	4.95	2.10	4.63	–	–	–	–	–	–
CCc1c(C)nc(Nc2nc(C)c3cccc(OC)c3n2)[nH]c1=O [compound 12613]	52.18	47.72	56.65	–	0.65	–	4.94	–	–	–	–	4.75
COc1cccc2c(C)nc(Nc3nc(C)c(C)c(=O)[nH]3)nc12 [compound 12615]	29.24	31.59	26.88	5.29	1.16	5.23	–	–	–	–	–	–
COc1cccc2c(C)nc(Nc3nc(-c4ccc(F)cc4)cc(=O)[nH]3)nc12 [compound 12620]	33.01	32.26	33.77	–	1.03	–	5.28	–	–	–	–	5.29
CCCc1c[nH]c(Nc2nc(C)c3ccccc3n2)nc1=O [compound 12622]	26.32	21.30	31.34	4.68	0.55	4.94	–	–	–	–	–	–
Cc1cc(C)nc(Nc2nc(-c3ccccc3)c3ccc(Cl)cc3n2)n1 [compound 12636]	49.02	49.55	48.49	–	2.18	–	4.46	–	–	–	–	4.80
CCCc1cc(=O)[nH]c(Nc2nc(C)c3ccc(C)cc3n2)n1 [compound 12655]	31.68	30.00	33.36	–	0.68	–	5.10	–	–	–	–	4.94
CCCc1c(C)[nH]c(Nc2nc(C)c3cc(C)ccc3n2)nc1=O [compound 12661]	35.24	29.34	41.14	4.37	0.89	4.42	–	–	–	–	–	–
CCCc1c(C)nc(Nc2nc(C)c3cc(C)ccc3n2)[nH]c1=O [compound 12667]	31.86	29.45	34.27	4.44	0.54	4.71	–	–	–	–	–	–
CCCc1cc(=O)[nH]c(Nc2nc(C)c3ccc(C)cc3n2)n1 [compound 12674]	40.69	29.69	51.69	4.97	0.79	5.08	–	–	–	–	–	–
